Where “and” joins values, the source holds several entries; their conditions need not be identical. Identical values can stand only once.
Tests used:
AChE from electric eel = AChE from electric eel (Electrophorus electricus, UniProt O42275); experiment: biochemical; settings: for Selectivity for AChE: IC50 (BuChE)/IC50(AChE); for IC50: means ± SD of three independent experiments, read-out: EeAChE IC50 ± SD
BuChE from equine serum = BuChE from equine serum (Equus caballus, UniProt P81908); experiment: biochemical; settings: for Selectivity for BuChE: IC50(AChE)/IC50(BuChE); for IC50: means ± SD of three independent experiments, read-out: EqBuChE IC50 ± SD
[1] = Experimental Properties; cited from earlier work
[2] = test system: Human hepatic stellate cells (HSCs); experiment: in vitro; assay type: cell-based; settings: HSCs, 24 h
Procedure: (§1) Human hepatic stellate cells (HSCs, Sciencell) were cultured in the Stellate Cell Medium (Sciencell) with 1% Stellate Cell Growth Supplement, 2% fetal bovine serum (FBS), and 1% penicillin/streptomycin solution (Sciencell). Cells were kept in the incubator (37 °C, 5% CO2). At the beginning of the experiment, cells were seeded in the 96-well plates at a density of 5 × 10^3 cells per well and incubated in the incubator for 24 h. After the incubation period, medium was removed and HSCs were exposed to 100 µL of the compound solutions over a range of concentrations (10–0.1 µM) or nothing but culture medium (blank control). Cells were further incubated for 24 h. At the end, medium was removed, cells were washed with PBS, and 50 µL of the MTT solution (0.75 mg/mL) was added to the cells. Plates were kept in the dark for 2 h at 37 °C. Finally, the MTT solution was removed and 100 µL of DMSO was added to each well. Plates with DMSO were kept at room temperature for 10 min. After this time, 5 µL of Sorensen Buffer was added to each well. Plates were swayed and the absorbance was measured at a wavelength of 570 nm by a microplate reader (Synergy H1, BioTek). The cell viability was expressed as a percentage of the control values (blank control).

in vitro = assay type: cell-based; settings: human
Procedure: as §1

[3] = Experimental Properties; cited from earlier work; remark: listed apart in the source
hyaluronidase = molecular target: T1, hyaluronidase (Bos taurus, UniProt Q2YDK3); experiment: Hyaluronidase (HYAL) inhibition test (turbidimetry); assay type: biochemical
T1 sequence (Q2YDK3 36-553): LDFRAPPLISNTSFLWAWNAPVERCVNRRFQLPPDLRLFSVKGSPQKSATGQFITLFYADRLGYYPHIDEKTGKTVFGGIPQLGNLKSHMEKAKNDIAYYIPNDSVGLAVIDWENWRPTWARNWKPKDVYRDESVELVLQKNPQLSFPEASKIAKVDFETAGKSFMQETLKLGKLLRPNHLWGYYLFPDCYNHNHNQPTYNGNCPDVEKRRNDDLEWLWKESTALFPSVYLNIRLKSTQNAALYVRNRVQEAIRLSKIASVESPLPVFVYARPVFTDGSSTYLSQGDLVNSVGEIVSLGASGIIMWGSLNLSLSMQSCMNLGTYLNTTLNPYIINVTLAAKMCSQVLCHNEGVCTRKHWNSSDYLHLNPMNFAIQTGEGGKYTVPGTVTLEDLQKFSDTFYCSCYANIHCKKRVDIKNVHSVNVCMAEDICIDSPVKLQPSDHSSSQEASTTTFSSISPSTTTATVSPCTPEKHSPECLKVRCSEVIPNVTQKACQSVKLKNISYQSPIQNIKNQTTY
Procedure: The hyaluronidase inhibition assay was set by turbidimetry according to USP XXII-NF XVII, modified by Piwowarski, to the 96-wells plates test. Tested compound solutions were freshly prepared before the assay. The protocol started with the addition of 20 µL of the tested compound in monosodium phosphate buffer and 40 µL of hyaluronidase solution (22.5 U/mL, Sigma Aldrich) to each well. The plate was kept in the dark (10 min, 37 °C). In the next step, 40 µL of hyaluronic acid solution (0.03%, Sigma Aldrich) in monosodium phosphate buffer was added to the wells and the plate was incubated again (45 min, 37 °C). Finally, 300 µL of bovine serum albumin (0.1%, Serva) in sodium acetate buffer was added to the wells and the mixture was kept at room temperature for 10 min. The assay was carried out in triplicate. Changes in turbidity were measured by a microplate reader (BioTek, Winooski, VT, USA) at 600 nm. Heparin (WZF, Polfa, Warszawa, Poland) was the positive control. The inhibitory activity of the tested compound was calculated from the Equation (1):(1) % inhibition=100x1−AHA−AAN/AHA−AHYAL where AHA is the absorbance of solution without the enzyme (positive control), AHYAL is the absorbance of solution without the tested compound (negative control), and AAN is the absorbance of solution with the tested compound.

SH-SY5Y cells [4] = experiment: Neuroprotection against rotenone/oligomycin A, pre-incubation (MTT); assay type: cell-based, human; settings: R/O mixture, 0.001 µM
SH-SY5Y cells [5] = experiment: Neuroprotection against rotenone/oligomycin A, co-incubation (MTT); assay type: cell-based, human; settings: R/O mixture
SH-SY5Y cells [6] = experiment: Neuroprotection against oxidative stress induced by H2O2 (MTT); assay type: cell-based, human; settings: H2O2 100 µM

Sequence of BuChE from equine serum (P81908 whole entry): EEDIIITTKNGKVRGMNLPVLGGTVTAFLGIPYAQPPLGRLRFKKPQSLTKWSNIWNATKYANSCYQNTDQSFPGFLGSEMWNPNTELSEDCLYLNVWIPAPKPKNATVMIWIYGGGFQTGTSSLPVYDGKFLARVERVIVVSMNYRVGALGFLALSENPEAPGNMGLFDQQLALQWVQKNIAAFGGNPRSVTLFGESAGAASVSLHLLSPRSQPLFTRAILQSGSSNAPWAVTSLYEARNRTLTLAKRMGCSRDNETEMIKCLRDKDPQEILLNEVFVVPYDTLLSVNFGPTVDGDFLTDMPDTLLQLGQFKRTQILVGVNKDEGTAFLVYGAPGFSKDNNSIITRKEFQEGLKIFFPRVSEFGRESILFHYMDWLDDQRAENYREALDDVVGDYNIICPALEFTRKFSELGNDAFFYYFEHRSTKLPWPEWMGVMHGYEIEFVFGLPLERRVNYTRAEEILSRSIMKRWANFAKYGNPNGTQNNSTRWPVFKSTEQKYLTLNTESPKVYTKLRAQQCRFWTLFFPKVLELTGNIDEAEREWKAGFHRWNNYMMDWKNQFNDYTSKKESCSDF
Sequence of AChE from electric eel (O42275 24-633): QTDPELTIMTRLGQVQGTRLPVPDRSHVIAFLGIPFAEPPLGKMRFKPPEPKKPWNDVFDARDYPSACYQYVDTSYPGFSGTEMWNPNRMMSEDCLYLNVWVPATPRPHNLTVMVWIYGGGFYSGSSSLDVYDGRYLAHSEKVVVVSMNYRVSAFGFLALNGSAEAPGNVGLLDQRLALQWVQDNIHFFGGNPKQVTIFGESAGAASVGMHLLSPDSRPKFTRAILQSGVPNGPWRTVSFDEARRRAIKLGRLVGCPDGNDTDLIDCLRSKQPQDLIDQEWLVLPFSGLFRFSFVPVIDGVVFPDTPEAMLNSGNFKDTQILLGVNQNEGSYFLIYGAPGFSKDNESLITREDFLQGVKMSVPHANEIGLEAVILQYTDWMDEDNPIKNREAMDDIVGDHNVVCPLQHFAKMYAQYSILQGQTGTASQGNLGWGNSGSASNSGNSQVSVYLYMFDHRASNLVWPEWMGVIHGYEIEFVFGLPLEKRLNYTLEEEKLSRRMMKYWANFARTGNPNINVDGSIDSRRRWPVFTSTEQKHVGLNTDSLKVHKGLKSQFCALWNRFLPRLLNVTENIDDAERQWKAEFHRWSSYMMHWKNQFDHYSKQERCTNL

Compound: O=C(NCCCCCCCNc1c2c(nc3ccccc13)CCCC2)c1cc(Cl)cc(Cl)c1 [Compound 3f]
- Selectivity for AChE (AChE from electric eel): 0.289
- IC50 (AChE from electric eel): 115 ± 12 nM
- Selectivity for BuChE (BuChE from equine serum): 3.457
- IC50 (BuChE from equine serum): 33 ± 6 nM

Compound: CC(CN1c2ccccc2Sc2ccccc21)N(C)C.Cl (centres unmarked) [Prometazine HCl]
- pKa [1]: 9.1 [52]

Compound: O=C(NCCCCCCNc1c2c(nc3ccccc13)CCCC2)c1cc(Cl)cc(Cl)c1 [Compound 3e]
- IC50 (AChE from electric eel): > 20000 nM
- IC50 (BuChE from equine serum): > 20000 nM

Compound: O=C(NCCCCCNc1c2c(nc3ccccc13)CCCC2)c1cc(Cl)cc(Cl)c1 [Compound 3d]
- IC50 (AChE from electric eel): > 12000 nM and 12400 nM
- IC50 (BuChE from equine serum): > 20000 nM

Compound: O=C(NCCCNc1c2c(nc3ccccc13)CCCC2)c1cc(Cl)cc(Cl)c1 [Compound 3b]
- Selectivity for AChE (AChE from electric eel): 0.174
- IC50 (AChE from electric eel): 139 ± 5 nM
- Selectivity for BuChE (BuChE from equine serum): 5.756
- IC50 (BuChE from equine serum): 24 ± 1 nM

Compound: Nc1c2c(nc3ccccc13)CCCC2 [Tacrine, reference compound]
- hepatotoxicity (MTT; cell viability as percentage of control) ([2]; 0.1 µM): 100.67% ± 1.03%
- hepatotoxicity (MTT; cell viability as percentage of control) ([2]; 1 µM): 99.48% ± 0.74%
- viability at 24 h, 10 µM (in vitro): 90.3%

Compound: CSc1ccc2c(c1)N(CCC1CCCCN1C)c1ccccc1S2.Cl (centres unmarked) [Thiorydazine HCl]
- logP [3]: 5.9
- pKa [1]: 9.5 [54]

Compound: Heparin [positive control]
- IC50 (hyaluronidase): 56.4 ± 0.78 µM

Compound: O=C(NCCCCCCCCNc1c2c(nc3ccccc13)CCCC2)c1cc(Cl)cc(Cl)c1 [Compound 3g]
- Selectivity for AChE (AChE from electric eel): 0.634
- IC50 (AChE from electric eel): 958 ± 36 nM
- Selectivity for BuChE (BuChE from equine serum): 1.577
- IC50 (BuChE from equine serum): 607 ± 20 nM

Compound: Cc1c(C)c2c(c(C)c1O)CCC(C)(C(=O)O)O2 (centres unmarked) [Trolox, reference compound]
- neuroprotection (SH-SY5Y cells [4]): 2.15%
- neuroprotection (SH-SY5Y cells [5]; 0.001 µM): 5.60%
- neuroprotection (SH-SY5Y cells [5]; 0.01 µM): 4.67%
- neuroprotection (SH-SY5Y cells [6]; compound 0.01 µM): 77.16%
- neuroprotection (SH-SY5Y cells [6]; compound 0.1 µM): 91.22%
- neuroprotection (SH-SY5Y cells [6]; compound 1 µM): 96.03%
- neuroprotection (SH-SY5Y cells [6]; compound 10 µM): 95.05%

Compound: Cl.O=C(NCCNc1c2c(nc3ccccc13)CCCC2)c1cc(Cl)cc(Cl)c1 [Compound 3a]
- Selectivity for AChE (AChE from electric eel): 0.203
- IC50 (AChE from electric eel): 690 ± 108 nM
- Selectivity for BuChE (BuChE from equine serum): 4.935
- IC50 (BuChE from equine serum): 140 ± 12 nM

Compound: O=C(NCCCCCCCCCNc1c2c(nc3ccccc13)CCCC2)c1cc(Cl)cc(Cl)c1 [Compound 3h]
- Selectivity for AChE (AChE from electric eel): 2.914
- IC50 (AChE from electric eel): 111 ± 4 nM
- Selectivity for BuChE (BuChE from equine serum): 0.343
- IC50 (BuChE from equine serum): 324 ± 47 nM
